This note sets out measurements from patent US6956034B2, “Oxazin(ethyl)one compounds used as fungicides” (BASF Aktiengesellschaft, priority 2001, dated 2005).

Test [1] deals with mildew of cucumbers (Sphaerotheca fuliginea). Kind of test: Protective activity against mildew of cucumbers. The format is in vivo. Conditions: cucumber seedlings; for percentage of infection of leaves at the prescribed concentration of active compound: sprayed 20 h before inoculation, 7 days, untreated 90. Here is the method:
The active compounds were used as aqueous preparations of active compounds which contained the active compound in a concentration of 250 ppm, 63 ppm, 16 ppm and 4 ppm, respectively. The aqueous preparation of active compound was prepared by diluting a stock solution of 10% by weight of active compound, 63% by weight of cyclohexanone and 27% by weight of emulsifier (20 parts by weight of Nekanil® LN (Lutensol® AP6, wetting agent having emulsifying and dispersing action based on ethoxylated alkylphenols) and 10 parts by weight of Wettol® EM (nonionic emulsifier based on ethoxylated castor oil)) with water in the amount required for the desired concentration.
Leaves of cucumber seedlings of the cultivar “Chinesische Schlange” which had been grown in pots were, at the cotyledon stage, sprayed to runoff point with an aqueous preparation of active compound. 20 hours after the spray coating had dried on, the plants were inoculated with an aqueous spore suspension of mildew of cucumbers (Sphaerotheca fuliginea). The plants were then cultivated in a greenhouse at 20-24° C. and 60-80% relative atmospheric humidity for 7 days. The extent of the mildew development was then determined visually in % infection of the cotyledon area.

Test [2] concerns mildew of wheat (Erysiphe [syn. Blumeria] graminis forma specialis tritici). Kind of test: Protective activity against mildew of wheat. The format is in vivo. The following applies: wheat seedlings, sprayed 24 h before inoculation, 7 days, untreated 85. The protocol:
The active compounds were used as aqueous preparations of active compounds which contained the active compound in a concentration of 250 ppm, 63 ppm, 16 ppm and 4 ppm, respectively. The aqueous preparation of active compound was prepared by diluting a stock solution of 10% by weight of active compound, 63% by weight of cyclohexanone and 27% by weight of emulsifier (20 parts by weight of Nekanil® LN (Lutensol® AP6, wetting agent having emulsifying and dispersing action based on ethoxylated alkylphenols) and 10 parts by weight of Wettol® EM (nonionic emulsifier based on ethoxylated castor oil)) with water in the amount required for the desired concentration. The first fully developed leaves of the wheat seedlings of the variety “Kanzler” which had been grown in pots were sprayed to runoff point with an aqueous preparation of active compound prepared from a stock solution containing 10% of active compound, […]. 24 hours after the spray coating had dried on, the plants were inoculated with an aqueous spore suspension of mildew of wheat (Erysiphe [syn. Blumeria] graminis forma specialis. tritici). The plants were then cultivated in a greenhouse at 20-24° C. and 60-90% relative atmospheric humidity. After 7 days the extent of the mildew development was determined visually in % infection of the leaves.

`CCCn1c(=NOC)oc2ccc(Cl)cc2c1=O` [Compound I - A1.2, O-Methyl (6-chloro-3-propyl-4H-1,3-benz[e]oxazin-4(3H)-one)-2-oxime]: in test [1] (4 ppm, untreated plants 90% infected), the “infection of the cotyledon area” value is listed as “no infection”.

Turning to `CCCn1c(=NOC)oc2ccc(Cl)cc2c1=O` [I - A1.2], the “percentage of infection of leaves at the prescribed concentration of active compound” value (shortened to “percentage of infection of leaves”) in test [1] (16 ppm), in test [1] (63 ppm), in test [1] (250 ppm), in test [2] (16 ppm), in test [2] (63 ppm) and in test [2] (250 ppm) was 0% throughout.

With `CCCn1c(=NOC)oc2ccc(I)cc2c1=O` [I - A1.4], the “percentage of infection of leaves” value in test [1] (16 ppm), in test [1] (63 ppm), in test [1] (250 ppm), in test [2] (16 ppm), in test [2] (63 ppm) and in test [2] (250 ppm) was 0% in each case.

Regarding `CCCn1c(=NOCC)oc2ccc(I)cc2c1=O` [I - A1.8], the “percentage of infection of leaves” value in test [1] (16 ppm), in test [1] (63 ppm), in test [1] (250 ppm), in test [2] (16 ppm), in test [2] (63 ppm) and in test [2] (250 ppm) was 0% throughout.

On to `CCCON=c1oc2ccc(I)cc2c(=O)n1CCC` [I - A1.12], for which the “percentage of infection of leaves” value in test [1] (16 ppm), in test [1] (63 ppm), in test [1] (250 ppm), in test [2] (16 ppm), in test [2] (63 ppm) and in test [2] (250 ppm) was 0% in each case.

In the case of `CCCCn1c(=NOC)oc2ccc(I)cc2c1=O` [I - A1.20], the “percentage of infection of leaves” value in test [1] (16 ppm), in test [1] (63 ppm), in test [1] (250 ppm), in test [2] (16 ppm), in test [2] (63 ppm) and in test [2] (250 ppm) was 0% each time.

For `CCCCn1c(=NOCC)oc2ccc(I)cc2c1=O` [I - A1.24], the “percentage of infection of leaves” value in test [1] (16 ppm), in test [1] (63 ppm), in test [1] (250 ppm), in test [2] (16 ppm), in test [2] (63 ppm) and in test [2] (250 ppm) was 0% each time.

For the molecule `CCCCn1c(=NOCCC)oc2ccc(I)cc2c1=O` [I - A1.28], the “percentage of infection of leaves” value in test [1] (16 ppm), in test [1] (63 ppm), in test [1] (250 ppm), in test [2] (16 ppm), in test [2] (63 ppm) and in test [2] (250 ppm) was 0% throughout.

Take `CON=c1oc2ccc(I)cc2c(=O)n1CC1CC1` [I - A1.68]: the “percentage of infection of leaves” value in test [1] (16 ppm), in test [1] (63 ppm), in test [1] (250 ppm), in test [2] (16 ppm), in test [2] (63 ppm) and in test [2] (250 ppm) was 0% in each case.

In the case of `CCON=c1oc2ccc(I)cc2c(=O)n1CC1CC1` [I - A1.72], the “percentage of infection of leaves” value in test [1] (16 ppm), in test [1] (63 ppm), in test [1] (250 ppm), in test [2] (16 ppm), in test [2] (63 ppm) and in test [2] (250 ppm) was 0% each time.

For the molecule `CCCON=c1oc2ccc(I)cc2c(=O)n1CC1CC1` [I - A1.76], the “percentage of infection of leaves” value in test [1] (16 ppm), in test [1] (63 ppm), in test [1] (250 ppm), in test [2] (16 ppm), in test [2] (63 ppm) and in test [2] (250 ppm) was 0% each time.

On to `CCCn1c(=NOC)oc2ccc(C)cc2c1=O` [I - A1.132], for which the “percentage of infection of leaves” value in test [1] (16 ppm) is 10%; in test [1] (63 ppm), 10%; in test [1] (250 ppm) it was 0%.

`CCCn1c(=NOC)oc2ccc(OC)cc2c1=O` [I - A1.133]: the “percentage of infection of leaves” value is 10% in test [1] (16 ppm); 5% in test [1] (63 ppm); 0% in test [1] (250 ppm); 20% in test [2] (16 ppm); 0% in test [2] (63 ppm); 0% in test [2] (250 ppm).

Regarding `CC(C)ON=c1oc2ccc(I)cc2c(=O)n1CC1CC1` [I - A1.134], the “percentage of infection of leaves” value in test [1] (16 ppm), in test [1] (63 ppm), in test [1] (250 ppm), in test [2] (16 ppm), in test [2] (63 ppm) and in test [2] (250 ppm) was 0% throughout.

In the case of `O=c1c2cc(I)ccc2oc(=NOCC2CC2)n1CC1CC1` [I - A1.135], the “percentage of infection of leaves” value is recorded as 3% in test [1] (16 ppm); 0% in test [1] (63 ppm); 0% in test [1] (250 ppm); 5% in test [2] (16 ppm); 0% in test [2] (63 ppm); 0% in test [2] (250 ppm).

As to `CCCCn1c(=NOCC2CC2)oc2ccc(I)cc2c1=O` [I - A1.136], the “percentage of infection of leaves” value in test [1] (16 ppm), in test [1] (63 ppm), in test [1] (250 ppm), in test [2] (16 ppm), in test [2] (63 ppm) and in test [2] (250 ppm) was 0% each time.

For the molecule `CCCn1c(=NOCC2CC2)oc2ccc(I)cc2c1=O` [I - A1.137], the “percentage of infection of leaves” value in test [1] (16 ppm), in test [1] (63 ppm), in test [1] (250 ppm), in test [2] (16 ppm), in test [2] (63 ppm) and in test [2] (250 ppm) was 0% each time.
